IC50 and IC90 data for 37 molecules are collected here from ChEMBL document CHEMBL4483862, “Open-source discovery of chemical leads for next-generation chemoprotective antimalarials” (2018).

A value given as a limit tells only on which side of the number the result lay.

Usually IC50 stands for the concentration at which inhibition is half-maximal. What is called IC90 is the concentration at which the effect reaches the 90% level.

The assay deals with Plasmodium berghei. The assay can be described thus: Luciferase/luciferin-expressing antifolate-resistant parasites were used to infect a culture of HepG2 cells that were pre-incubated with compounds. Infected hepatocytes emit light due to the luciferase reaction. Assay results are presented as the percent inhibition of light emission compared to control. […]. The assay is classed as functional. Conditions: sporozoite; for IC90: read-out: LUCIFERASE INFECTION ASSAY - IC90.

[1] abbreviates: read-out: LUCIFERASE INFECTION ASSAY - IC50.

`Cc1cc(-c2csc(Cc3ccccc3)n2)c(C)n1NC(=O)c1nn(C)c(=O)c2ccccc12`: the IC90 is greater than 10 µM. In addition, under setting [1], the 50% inhibitory concentration (IC50) was greater than 10 µM.
For the molecule `COc1ccc(-c2nc(C)c(C(=O)NCc3ccc(-n4cccn4)nc3)s2)cc1`, the concentration for an effect of 90% (IC90) was greater than 10 µM. Also, the IC50 under setting [1] was greater than 10 µM.
`Cc1cccc2c(=O)n(CC(=O)NCCCCOc3ccc(F)cc3)cnc12`: the 90% effect concentration (IC90) is greater than 10 µM. Besides, under setting [1], the IC50 was greater than 10 µM.
On to `Cc1cc(C(=O)Cn2nnc3ccccc3c2=O)c(C)n1-c1ccccc1F`, for which the IC90 worked out at 3.8 µM. Further, where the note is “PBLUC_HILL_SLOPE 0.371, 0.679, PBLUC_R_SQUARED 0.784, 0.965, read-out: LUCIFERASE INFECTION ASSAY - IC50”, the 50% inhibitory concentration (IC50) is 0.126 µM.
`O=S(=O)(c1ccc2ccccc2c1)N1CCCC1c1nnc2ccccn12` (centres undefined): the IC90 was 5.59 µM. In addition, the IC50 (PBLUC_HILL_SLOPE 2.1, PBLUC_R_SQUARED 0.614, read-out: LUCIFERASE INFECTION ASSAY - IC50) amounted to 1.96 µM.
On to `CCOC(=O)c1cc(-c2ccc(OC)cc2)nn1-c1cccc(C)c1`, for which the IC90 was greater than 10 µM. Moreover, the IC50 (PBLUC_HILL_SLOPE 0.992, PBLUC_R_SQUARED 0.815, read-out: LUCIFERASE INFECTION ASSAY - IC50) was greater than 10 µM.
`Cc1cnc2c(S(=O)(=O)NCc3csc(-c4ccccc4)n3)cccc2c1`: the IC90 is greater than 10 µM. In addition, under setting [1], the half-inhibitory concentration (IC50) was greater than 10 µM.
As to `c1ccc(-c2csc3ncnc(N4CCN(c5cnccn5)CC4)c23)cc1`, the IC90 is greater than 10 µM. Besides, the IC50 under setting [1] is greater than 10 µM.
As for `Cc1cc(-n2c(C)cc(C(=O)Cn3ncc(Cl)c(Cl)c3=O)c2C)ccc1Br`, the IC90 was 5.84 µM. Also, the IC50 (FFLUC_HILL_SLOPE 3.61, FFLUC_R_SQUARED 0.511, HEPG2TOX_HILL_SLOPE 4.93, HEPG2TOX_R_SQUARED 0.864, PBLUC_HILL_SLOPE 65.8, PBLUC_R_SQUARED 0.0361, read-out: LUCIFERASE INFECTION ASSAY - IC50) was found to be 5.65 µM.
As to `CCOC(=O)c1sc(N)c(C#N)c1CSc1nc(-c2ccccc2)cs1`, the IC90 was determined as 3.69 µM. Moreover, the IC50 (HEPG2TOX_HILL_SLOPE 1.34, HEPG2TOX_R_SQUARED 0.985, PBLUC_HILL_SLOPE 11.8, PBLUC_R_SQUARED 0.536, read-out: LUCIFERASE INFECTION ASSAY - IC50) came out at 3.06 µM.
In the case of `O=C(Nc1cccc(-c2nc3ccccc3[nH]2)c1)c1cccc(S(=O)(=O)N2CCCC2)c1`, the IC90 was greater than 10 µM. Moreover, the half-maximal inhibitory concentration (IC50) under setting [1] was greater than 10 µM.
With `CNC(=O)c1ccc(CN(C2CC2)S(=O)(=O)c2cc([N+](=O)[O-])cc(C)c2C)cc1`, the IC90 is greater than 10 µM. Besides, the half-maximal inhibitory concentration (IC50) (FFLUC_HILL_SLOPE 3.59, FFLUC_R_SQUARED 0.192, PBLUC_HILL_SLOPE 1.6, PBLUC_R_SQUARED 0.527, read-out: LUCIFERASE INFECTION ASSAY - IC50) stood at 5.04 µM.
On to `O=C(Nc1nc(-c2ccccn2)cs1)C1CC1c1ccccc1F` (centres undefined), for which the concentration for an effect of 90% (IC90) was found to be 3.57 µM. The IC50 (HEPG2TOX_HILL_SLOPE 7.24, HEPG2TOX_R_SQUARED 0.0806, PBLUC_HILL_SLOPE 12.4, PBLUC_R_SQUARED 0.768, read-out: LUCIFERASE INFECTION ASSAY - IC50) is 2.99 µM.
`Clc1ccc(N/N=C/Cc2nnnn2-c2ccccc2)cc1`: the concentration for an effect of 90% (IC90) was greater than 10.6 µM. The half-inhibitory concentration (IC50) (PBLUC_HILL_SLOPE 11.7, PBLUC_R_SQUARED 0.117, read-out: LUCIFERASE INFECTION ASSAY - IC50) was found to be 10.1 µM.
As to `CC(C)Oc1cccc(Nc2nccc3[nH]c(-c4ccccc4)cc23)c1`, the IC90 came out at 7.93 µM. Where the note is “HEPG2TOX_HILL_SLOPE 8.91, HEPG2TOX_R_SQUARED 0.686, PBLUC_HILL_SLOPE 1.92, PBLUC_R_SQUARED 0.493, read-out: LUCIFERASE INFECTION ASSAY - IC50”, the half-maximal inhibitory concentration (IC50) stood at 2.53 µM.
For `Cc1sc2nc3c4ccccc4c(NCc4ccccc4CN4CCOCC4)nn3c(=O)c2c1C`, the IC90 was greater than 10 µM. Further, the IC50 (HEPG2TOX_HILL_SLOPE 7.8, HEPG2TOX_R_SQUARED 0.205, PBLUC_HILL_SLOPE 3, PBLUC_R_SQUARED 0.458, read-out: LUCIFERASE INFECTION ASSAY - IC50) was found to be 5.95 µM.
As for `CC(C)Oc1ccc(-c2nc3c4c5c(sc4ncn3n2)CN(C)CC5)cc1`, the concentration for an effect of 90% (IC90) is greater than 8.7 µM. For the same molecule, the IC50 (HEPG2TOX_HILL_SLOPE 0.881, HEPG2TOX_R_SQUARED 0.629, PBLUC_HILL_SLOPE 9.03, PBLUC_R_SQUARED 0.277, read-out: LUCIFERASE INFECTION ASSAY - IC50) was 8.35 µM.
Consider `COc1ccc(OC)c(Cn2cc(Br)ccc2=O)c1`, for which the IC90 is greater than 10 µM. Besides, for the setting “HEPG2TOX_HILL_SLOPE 10.1, HEPG2TOX_R_SQUARED 0.0663, read-out: LUCIFERASE INFECTION ASSAY - IC50”, the 50% inhibitory concentration (IC50) is greater than 10 µM.
On to `O=C(Nc1ccc(N2CCCCC2)c(C(F)(F)F)c1)c1ccc(-n2nncc2-c2ccc(Cl)cc2)cc1`, for which the IC90 was greater than 10 µM. In addition, the IC50 (PBLUC_HILL_SLOPE 1.22, PBLUC_R_SQUARED 0.481, read-out: LUCIFERASE INFECTION ASSAY - IC50) was determined as 4.69 µM.
`c1csc(-c2nnc(Sc3ncnc4sccc34)[nH]2)c1`: the 90% effect concentration (IC90) was greater than 10 µM. In addition, the 50% inhibitory concentration (IC50) under setting [1] was greater than 10 µM.
Consider `N#Cc1c(SCC(=O)c2ccccc2)nc2c(c1-c1ccccc1)CCCC2`, for which the 90% effect concentration (IC90) stood at 6.39 µM. In addition, the IC50 (HEPG2TOX_HILL_SLOPE 0.131, HEPG2TOX_R_SQUARED 0.0459, PBLUC_HILL_SLOPE 1.72, PBLUC_R_SQUARED 0.594, read-out: LUCIFERASE INFECTION ASSAY - IC50) stood at 1.78 µM.
Consider `COc1ncccc1-c1cc2c(cn1)nc(NCc1cccc(C)c1)n2C`, for which the IC90 is greater than 10 µM. Further, under setting [1], the IC50 is greater than 10 µM.
Consider `O=C(NNC(=O)c1ccccn1)c1ccc(C2SCCCS2)cc1`, for which the 90% effect concentration (IC90) is greater than 10 µM. For the same molecule, the IC50 (FFLUC_HILL_SLOPE 16.5, FFLUC_R_SQUARED 0.524, PBLUC_HILL_SLOPE 17.5, PBLUC_R_SQUARED 0.078, read-out: LUCIFERASE INFECTION ASSAY - IC50) turned out to be 9.07 µM.
`CCc1ccc(S(=O)(=O)Oc2ccccc2NC(C)=O)cc1`: the concentration for an effect of 90% (IC90) is greater than 10 µM. For the same molecule, the half-inhibitory concentration (IC50) under setting [1] is greater than 10 µM.
Turning to `NC(=O)C1CCN(C(=O)CCn2c(=O)oc3ccccc32)CC1`, the IC90 is greater than 10 µM. The IC50 under setting [1] was greater than 10 µM.
In the case of `O=C(/C(=N/Nc1ccc([N+](=O)[O-])cc1)C(=O)C(F)(F)F)c1cccs1`, the IC90 was determined as 1 µM. In addition, the half-maximal inhibitory concentration (IC50) (HEPG2TOX_HILL_SLOPE 2.64, HEPG2TOX_R_SQUARED 0.853, PBLUC_HILL_SLOPE 14.9, PBLUC_R_SQUARED 0.662, read-out: LUCIFERASE INFECTION ASSAY - IC50) is 0.866 µM.
`COc1ccc(OC)c(CCNc2nc3cnc(-c4cccc(OC(F)(F)F)c4)cc3n2C)c1`: the IC90 turned out to be 4.72 µM. Also, under “HEPG2TOX_HILL_SLOPE 4.6, HEPG2TOX_R_SQUARED 0.893, PBLUC_HILL_SLOPE 3.53, PBLUC_R_SQUARED 0.694, read-out: LUCIFERASE INFECTION ASSAY - IC50”, the half-maximal inhibitory concentration (IC50) came out at 2.53 µM.
As for `COCCNC(=O)Cn1nnc(C)c1COc1ccc2ccccc2c1`, the IC90 was greater than 9.31 µM. In addition, under setting [1], the IC50 was greater than 9.31 µM.
On to `Cc1ccc(OCCOC(=O)c2cc(=O)[nH]c3ccccc23)cc1`, for which the 90% effect concentration (IC90) was greater than 10 µM. Also, the IC50 (FFLUC_HILL_SLOPE 2.13, FFLUC_R_SQUARED 0.116, read-out: LUCIFERASE INFECTION ASSAY - IC50) is greater than 10 µM.
In the case of `O=S(=O)(c1ccc2oc(Nc3ccc(Nc4ccccc4)cc3)nc2c1)N1CCOCC1`, the IC90 is greater than 10 µM. Also, the half-maximal inhibitory concentration (IC50) (FFLUC_HILL_SLOPE 13.7, FFLUC_R_SQUARED 0.693, PBLUC_HILL_SLOPE 9.99, PBLUC_R_SQUARED 0.314, read-out: LUCIFERASE INFECTION ASSAY - IC50) is 9.23 µM.
Consider `CC(=O)c1cccc(-c2ccc3ncc(-c4cccc(O)c4)n3n2)c1`, for which the 90% effect concentration (IC90) is 3.6 µM. Also, the half-maximal inhibitory concentration (IC50) (HEPG2TOX_HILL_SLOPE 4.7, HEPG2TOX_R_SQUARED 0.977, PBLUC_HILL_SLOPE 30, PBLUC_R_SQUARED 0.547, read-out: LUCIFERASE INFECTION ASSAY - IC50) was found to be 3.34 µM.
For `CCOC(=O)c1ccc(NC2CCCCC2)c(/N=C/c2cc(Cl)cc(Cl)c2O)c1`, the concentration for an effect of 90% (IC90) worked out at 2.39 µM. Further, the IC50 (HEPG2TOX_HILL_SLOPE 1.82, HEPG2TOX_R_SQUARED 0.941, PBLUC_HILL_SLOPE 4.39, PBLUC_R_SQUARED 0.446, read-out: LUCIFERASE INFECTION ASSAY - IC50) turned out to be 1.45 µM.
With `COc1cccc(N(C(=O)c2ccc3c(c2)OCO3)c2nc(-c3ccc(Cl)cc3Cl)cs2)c1`, the IC90 was greater than 10 µM. For the same molecule, the IC50 (FFLUC_HILL_SLOPE 8.73, FFLUC_R_SQUARED 0.44, PBLUC_HILL_SLOPE 14.1, PBLUC_R_SQUARED 0.181, read-out: LUCIFERASE INFECTION ASSAY - IC50) is 8.64 µM.
On to `O=S(=O)(Cc1ccccc1)N1CCN(c2ncnc3sc(-c4ccccc4)cc23)CC1`, for which the concentration for an effect of 90% (IC90) was greater than 10 µM. The IC50 under setting [1] is greater than 10 µM.
Take `Nc1nccnc1C(=O)Nc1ccc(C23CC4CC(CC(C4)C2)C3)cc1`: the IC90 was determined as 9.45 µM. Besides, the IC50 (FFLUC_HILL_SLOPE 1.35, FFLUC_R_SQUARED 0.9, PBLUC_HILL_SLOPE 1.78, PBLUC_R_SQUARED 0.606, read-out: LUCIFERASE INFECTION ASSAY - IC50) worked out at 2.75 µM.
Consider `N#Cc1ccc(C(=O)Nc2nc(-c3c[nH]c4ccccc34)cs2)cc1`, for which the IC90 is greater than 10 µM. For the same molecule, under “PBLUC_HILL_SLOPE 15.6, PBLUC_R_SQUARED 0.4, read-out: LUCIFERASE INFECTION ASSAY - IC50”, the concentration for half-maximal inhibition (IC50) is 9.53 µM.
Take `Cc1[nH]c2ccccc2c1C(=O)COc1ccc(N(C)S(=O)(=O)c2ccccc2F)cc1`: the concentration for an effect of 90% (IC90) was greater than 10 µM. For the same molecule, the IC50 (PBLUC_HILL_SLOPE 1.92, PBLUC_R_SQUARED 0.479, read-out: LUCIFERASE INFECTION ASSAY - IC50) turned out to be 5.26 µM.
